Source: ChEMBL document CHEMBL5579878, “Allosteric Activation of Protein Phosphatase 5 with Small Molecules” (J Med Chem, 2024)
Positions count from the first letter of the chain named. Calls of active or inactive are those of the source. The calls are words filed in the database; no cut-off is given here.

Columns and labels:
HCT-116 [1] = assay: Effect on AT13387-induced HSF1 expression in human HCT-116 cells at 50 uM incubated for 24 hrs by Western blot analysis; type: functional, cell-based
[2] = tested on: T1, Serine/threonine-protein phosphatase 5 (Homo sapiens), P53041 [E428A]; assay: Binding affinity to PP5 E428A mutant (unknown origin) by ITC analysis
T1 sequence (whole entry): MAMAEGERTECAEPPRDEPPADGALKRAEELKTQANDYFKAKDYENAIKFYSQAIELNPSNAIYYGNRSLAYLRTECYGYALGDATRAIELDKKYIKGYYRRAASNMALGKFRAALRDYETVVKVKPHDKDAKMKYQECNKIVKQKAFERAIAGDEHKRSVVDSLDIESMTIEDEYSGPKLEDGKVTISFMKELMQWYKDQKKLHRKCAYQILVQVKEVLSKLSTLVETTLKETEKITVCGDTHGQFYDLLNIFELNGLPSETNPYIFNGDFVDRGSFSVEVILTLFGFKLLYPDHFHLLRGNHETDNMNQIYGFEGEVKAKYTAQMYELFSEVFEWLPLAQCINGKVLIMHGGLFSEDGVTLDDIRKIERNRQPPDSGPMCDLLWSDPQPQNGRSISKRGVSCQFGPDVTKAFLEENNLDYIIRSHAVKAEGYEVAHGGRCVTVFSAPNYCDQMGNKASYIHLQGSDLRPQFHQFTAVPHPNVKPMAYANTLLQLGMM

[3] = tested on: T2, Serine/threonine-protein phosphatase 5 (Homo sapiens), P53041 [K430A]; assay: Activation of PP5 K430A mutant (unknown origin) using pNPP as substrate assessed as increase in phosphatase activity at 10 to 200 uM incubated for 30 mins by spectrophotometric analysis; conditions: dose 10-200 µM
T2 sequence (whole entry): T1 sequence (whole entry) with A428E, K430A

[4] = molecular target: T3, Serine/threonine-protein phosphatase 5 (Homo sapiens) (UniProt P53041); assay: Activation of PP5 in human HCT-116 cells assessed as decrease in intracellular S13 residue phosphorylated CDC37 level at 100 uM by Western blot analysis; type: cell-based; conditions: filed as activator, time <= 24.0 hrs, TDE = time-dependent effect
T3 sequence (whole entry): T1 sequence (whole entry) with A428E

HCT-116 [5] = assay: Antitumor activity against human HCT-116 cells xenografted in BALB/c nude mouse assessed as decrease in AT13387-induced HSP27 protein expression in tumor at 30 to 60 mg/kg, ip administered every other day for 14 days by Western blot analysis; type: functional, organism-based; conditions: dose 30-60 mg/kg, time 14.0 day

For `N=c1oc2cc(F)cc(F)c2cc1C(N)=S`, the Activity (HCT-116 [1]) was “inactive”, the Activity [2] was “inactive” and the Activity [3] was “inactive”. The Activity [4] was “Tde” and the Activity (HCT-116 [5]) was “Active”.
